Assay results as given in patent publication US20250346943A1, “DEGRADER COMPOUNDS OF QSOX1 mRNA” (UNIVERSITY OF FLORIDA RESEARCH FOUNDATION, INCORPORATED, priority 2022, published 2025).

Test system: human transcriptome
Experiment: Chem-CLIP-Map-Seq transcriptome-wide target profiling in live MDA-MB-231 cells
Type: cell-based
Conditions: 20 μM, 16 h; for number of transcripts enriched (Chem-CLIP-seq): before excluding control probe overlap
Description: Additional studies were performed in live MDA-MB-231 cells to profile the cellular targets as well as the small molecule binding site within them, via Chem-CLIP-Map-Seq,^21 which had not previously been applied transcriptome-wide. After treatment (20 μM; 16 h) and cross-linking, total RNA was harvested and fragmented prior to pull-down (FIG. 2A). Random fragmentation was completed first to: 1) reduce sequence bias in library preparation, 2) reduce background signal in the RNA-seq analysis; and 3) allow for only the regions bound by the small molecules to be pulled down rather than the entire transcript, identifying both the target and the binding site within it. In parallel, a control diazirine probe that lacks an RNA-binding functionality (FIG. 2B) was used to identify targets that non-specifically react with the cross-linking moiety, where cross-linking is not driven by the RNA-binding elements.
Genrich uses a null model with a log-normal distribution to calculate p values by comparing sequencing runs of the same RNA sample before and after pull-down.
Chemical-Cross-linking and Isolation by Pull-down (Chem-CLIP) in Live Cells. MDA-MB-231 cells were seeded in 60 mm dishes and allowed to reach ˜80% confluency. The cells were then treated with 20 μM of compound in growth medium and incubated for 16 h. Cells were washed with 1×DPBS and irradiated with UV light for 10 min. Total RNA was harvested using a Zymo Quick-RNA Miniprep Kit per the manufacturer's protocol with DNase treatment. Total RNA was chemically fragmented by using an NEBNext Magnesium RNA Fragmentation Module (E6150S) per manufacturer's protocol to achieve final lengths between 100-150 nucleotides Pull-down of cross-linked RNAs was performed by adding 10 μg of total RNA to 100 μL of azide-disulfide agarose beads (Click Chemistry Tools, 1238-2) pre-washed with 25 mM HEPES, pH 7.0. The click reaction and pull-down were completed as described in “In Vitro Chemical-Crosslinking and Isolation by Pull-down (Chem-CLIP) with Fluorescently Labeled RNA”. The pulled down RNA was purified by RNA CleanXP beads (Beckman, A66514) per manufacturer's protocol.
RNA-seq Library Preparation and Data Analysis. The quality of the pulled down RNA was analyzed by using an Agilent 2100 Bioanalyzer RNA nanochip as well as to confirm fragment lengths. RNA concentration was quantified by Qubit 2.0 Fluorometer (Invitrogen). The input RNA (200 ng) was depleted of ribosomal RNA with NEBNext rRNA Depletion Module (E6310) according to manufacturer's recommendations. Library preparation was performed with NEBNext Ultra II Directional RNA kit (E7760) per manufacturer's protocols. Briefly, the rRNA-depleted samples were reverse transcribed with random hexamer primers to generate first strand cDNA, followed by second strand synthesis with dUTP instead of dTTP. The cDNA was end repaired and adenylated at their 3′ ends, followed by adaptor ligation. The strand information of the RNA was preserved by using USER enzyme (Uracil-specific excision reagent) to degrade the second strand. The cDNA was then PCR amplified with barcoded Illumina-compatible primers to generate the final libraries. These libraries were loaded into a NextSeq 500 v2.5 flow cell and sequenced with 2×40 bp paired-end chemistry. All fastq files were aligned to the human genome by STAR.^9 The output bam files were processed by Genrich (v0.6.1, available at https://github.com/jsh58/Genrich) for peak calling to identify regions of enrichment (p<0.001 and False Discovery Rate=1%). Fold enrichment was calculated by Deeptool^10 and visualized by IGV browser.^11 A minimum read count of 5 and a minimum fold enrichment of 1.5 were applied filter to filter out low-confidence peaks.

Compound	number of enriched transcripts also enriched by the control probe [transcripts]	number of transcripts enriched after eliminating transcripts also bound by the control diazirine	share of enriched transcripts also enriched by the control probe [%]	unique transcripts identified for the small molecule	number of transcripts enriched (Chem-CLIP-seq) [transcripts]
C#CCCC1(CCC(=O)Nc2nnc(SCc3ccc(F)c4cccnc34)n2C)N=N1 [Compound F5]	57	35	62	3	92
C#CCCC1(CCC(=O)N2CCN(c3nncc4sccc34)CC2)N=N1 [Compound F2]	52		31	38	166
C#CCCC1(CCC(=O)Nc2nc(-c3ccc(-n4cccn4)cc3)cs2)N=N1 [Compound F6]	55		43		127
C#CCCC1(CCC(=O)N(CCNC(=O)c2ccc(C)c(F)c2)Cc2ccncc2)N=N1 [Compound F3]	53		32		163
